Measured values published in US20150005288A1, “SUBSTITUTED PHENYLIMIDAZOPYRAZOLES AND USE THEREOF” (Bayer Intellectual Property GmbH, priority 2012, published 2015).
pIC50: −log10 of the molar value.

Biological target: T1, intracellular domain of human Tie2 (GST fusion protein) (Homo sapiens, UniProt Q02763)
T1 construct: intracellular domain of human Tie2 (amino acids 776-1124); made in house; host or cells: Baculovirus-infected insect cells (Hi5)
Assay: Tie2 kinase assay (Tie2-TR-FRET)
Assay type: biochemical
Details: ATP concentration 1 mM, in some cases means of several independent determinations
Summary of the method: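 High ATP (1 mM final) with 1 μM biotin-peptide substrate; reaction 60 min at 22 °C after 15 min compound pre-binding to GST-Tie2 (aa 776-1124) in HEPES pH 7 with Mg/Mn. Phosphopeptide detected by TR-FRET emission ratio 665/620 nm. IC50 from 4-parameter fit over 20 μM to 0.073 nM, duplicates.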

T1 sequence (Q02763 776-1124): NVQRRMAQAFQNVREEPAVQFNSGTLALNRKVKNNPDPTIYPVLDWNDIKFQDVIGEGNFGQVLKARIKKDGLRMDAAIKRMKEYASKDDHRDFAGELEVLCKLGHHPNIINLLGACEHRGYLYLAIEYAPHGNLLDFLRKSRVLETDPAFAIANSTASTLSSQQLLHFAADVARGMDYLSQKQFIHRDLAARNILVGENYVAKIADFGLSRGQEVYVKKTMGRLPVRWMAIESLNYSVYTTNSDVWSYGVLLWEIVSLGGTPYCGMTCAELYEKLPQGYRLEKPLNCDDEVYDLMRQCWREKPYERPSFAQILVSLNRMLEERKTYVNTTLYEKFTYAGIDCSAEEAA

Cc1ccc(NC(=O)c2ccc(F)c(C(F)(F)F)c2)cc1-n1ccn2nc(-c3cccnc3)cc12 [Example 45, 4-Fluoro-N-{4-methyl-3-[6-(pyridin-3-yl)-1H-imidazo[1,2-b]pyrazol-1-yl]phenyl}-3-(trifluoromethyl)benzamide]
pIC50: 6.13

Cc1ccc(NC(=O)c2cc(Br)cc(S(F)(F)(F)(F)F)c2)c(C)c1-n1ccn2nc(-c3cccnc3)cc12 [Example 120, 3-Bromo-N-{2,4-dimethyl-3-[6-(pyridin-3-yl)-1H-imidazo[1,2-b]pyrazol-1-yl]phenyl}-5-(pentafluoro-λ^6-sulphanyl)benzamide]
pIC50: 7.43

Cc1ccc(NC(=O)c2cc(C#N)cc(S(F)(F)(F)(F)F)c2)c(C)c1-n1ccn2nc(-c3cccnc3)cc12 [Example 121, 3-Cyano-N-{2,4-dimethyl-3-[6-(pyridin-3-yl)-1H-imidazo[1,2-b]pyrazol-1-yl]phenyl}-5-(pentafluoro-λ^6-sulphanyl)benzamide]
pIC50: 7.74

Cc1ccc(NC(=O)c2cc(C(C)(C)C)ccn2)cc1-n1ccn2nc(-c3cccnc3)cc12 [Example 125, 4-tert-Butyl-N-{4-methyl-3-[6-(pyridin-3-yl)-1H-imidazo[1,2-b]pyrazol-1-yl]phenyl}pyridine-2-carboxamide]
pIC50: 6.55

COC1CCN(c2cc(C(=O)Nc3cc(-n4ccn5nc(-c6cccnc6)cc45)c(C)cc3C)cc(S(F)(F)(F)(F)F)c2)CC1 [Example 145, N-{2,4-Dimethyl-5-[6-(pyridin-3-yl)-1H-imidazo[1,2-b]pyrazol-1-yl]phenyl}-3-(4-methoxypiperidin-1-yl)-5-(pentafluoro-λ^6-sulphanyl)benzamide]
pIC50: 9.05

Cc1ccc(NC(=O)c2cc(C#N)cc(S(F)(F)(F)(F)F)c2)c(O)c1-n1ccn2nc(-c3cccnc3)cc12 [Example 156, 3-Cyano-N-{2-hydroxy-4-methyl-3-[6-(pyridin-3-yl)-1H-imidazo[1,2-b]pyrazol-1-yl]phenyl}-5-(pentafluoro-λ^6-sulphanyl)benzamide]
pIC50: 8.23

Cc1ccc(NC(=O)c2cc(C(N)=O)cc(S(F)(F)(F)(F)F)c2)cc1-n1ccn2nc(-c3cccnc3)cc12 [Example 29, N-{4-Methyl-3-[6-(pyridin-3-yl)-1H-imidazo[1,2-b]pyrazol-1-yl]phenyl}-5-(pentafluoro-λ^6-sulphanyl)isophthalamide]
pIC50: 8.70

Cc1ccc(NC(=O)c2cccc(S(F)(F)(F)(F)F)c2)cc1-n1ccn2nc(-c3cnccn3)cc12 [Example 84, N-{4-Methyl-3-[6-(pyrazin-2-yl)-1H-imidazo[1,2-b]pyrazol-1-yl]phenyl}-3-(pentafluoro-λ^6-sulphanyl)benzamide]
pIC50: 6.66

Cc1ccc(NC(=O)c2cccc(-c3cccc(C#N)c3)c2)cc1-n1ccn2nc(-c3cccnc3)cc12 [Example 54, 3′-Cyano-N-{4-methyl-3-[6-(pyridin-3-yl)-1H-imidazo[1,2-b]pyrazol-1-yl]phenyl}biphenyl-3-carboxamide]
pIC50: 6.17

Cc1cc(C)c(-n2ccn3nc(-c4cccnc4)cc23)cc1NC(=O)c1cc(Cl)nc(C(C)(C)C)c1 [Example 115, 2-tert-Butyl-6-chloro-N-{2,4-dimethyl-5-[6-(pyridin-3-yl)-1H-imidazo[1,2-b]pyrazol-1-yl]-phenyl}isonicotinamide]
pIC50: 9.10

Cc1ccc(NC(=O)c2ccnc(C(C)(C)C)c2)cc1-n1ccn2nc(-c3cccnc3)cc12 [Example 64, 2-tert-Butyl-N-{4-methyl-3-[6-(pyridin-3-yl)-1H-imidazo[1,2-b]pyrazol-1-yl]phenyl}isonicotinamide]
pIC50: 7.39

N#Cc1cc(C(=O)Nc2ccc(Cl)c(-n3ccn4nc(-c5cccnc5)cc34)c2)cc(S(F)(F)(F)(F)F)c1 [Example 97, N-{4-Chloro-3-[6-(pyridin-3-yl)-1H-imidazo[1,2-b]pyrazol-1-yl]phenyl}-3-cyano-5-(pentafluoro-λ^6-sulphanyl)benzamide]
pIC50: 8.04

Cc1ccc(NC(=O)c2cc(C#N)cc(OC(F)(F)F)c2)cc1-n1ccn2nc(-c3cccnc3)cc12 [Example 38, 3-Cyano-N-{4-methyl-3-[6-(pyridin-3-yl)-1H-imidazo[1,2-b]pyrazol-1-yl]phenyl}-5-(trifluoromethoxy)benzamide]
pIC50: 7.82

Cc1cc(C)c(-n2ccn3nc(-c4cccnc4)cc23)cc1NC(=O)c1cc(CC(N)=O)cc(S(F)(F)(F)(F)F)c1 [Example 153, 3-(2-Amino-2-oxoethyl)-N-{2,4-dimethyl-5-[6-(pyridin-3-yl)-1H-imidazo[1,2-b]pyrazol-1-yl]-phenyl}-5-(pentafluoro-λ^6-sulphanyl)benzamide]
pIC50: 9.52

Cc1ccc(-n2ccn3nc(-c4cccnc4)cc23)cc1NC(=O)c1cc(Br)cc(C(C)(C)C)c1 [Example 78]
pIC50: 6.94

Cc1ccc(NC(=O)c2cc(OCCCN)cc(S(F)(F)(F)(F)F)c2)cc1-n1ccn2nc(-c3cccnc3)cc12 [Example 23, 3-(3-Aminopropoxy)-N-{4-methyl-3-[6-(pyridin-3-yl)-1H-imidazo[1,2-b]pyrazol-1-yl]phenyl}-5-(pentafluoro-λ^6-sulphanyl)benzamide]
pIC50: 9.52

Cc1cc(C)c(-n2ccn3nc(-c4cccnn4)cc23)cc1NC(=O)c1cccc(S(F)(F)(F)(F)F)c1 [Example 169, N-{2,4-Dimethyl-5-[6-(pyridazin-3-yl)-1H-imidazo[1,2-b]pyrazol-1-yl]phenyl}-3-(pentafluoro-λ^6-sulphanyl)benzamide]
pIC50: 9.00

Cc1cc(C)c(-n2ccn3nc(-c4cccnc4)cc23)cc1NC(=O)c1cc(CC(=O)OC(C)(C)C)cc(S(F)(F)(F)(F)F)c1 [Example 150, tert-Butyl [3-({2,4-dimethyl-5-[6-(pyridin-3-yl)-1H-imidazo[1,2-b]pyrazol-1-yl]phenyl}-carbamoyl)-5-(pentafluoro-λ^6-sulphanyl)phenyl]acetate]
pIC50: 8.62

Cc1cc(C)c(-n2ccn3nc(-c4cccnc4)cc23)cc1NC(=O)c1cc(CC(=O)O)cc(S(F)(F)(F)(F)F)c1 [Example 151, [3-({2,4-Dimethyl-5-[6-(pyridin-3-yl)-1H-imidazo[1,2-b]pyrazol-1-yl]phenyl}carbamoyl)-5-(pentafluoro-λ^6-sulphanyl)phenyl]acetic acid]
pIC50: 8.21

Cc1ccc(NC(=O)c2cc(C(F)(F)F)cc(S(N)(=O)=O)c2)cc1-n1ccn2nc(-c3cccnc3)cc12 [Example 122, N-{4-Methyl-3-[6-(pyridin-3-yl)-1H-imidazo[1,2-b]pyrazol-1-yl]phenyl}-3-sulphamoyl-5-(trifluoromethyl)benzamide]
pIC50: 8.41

Cc1c(NC(=O)c2cc(C#N)cc(S(F)(F)(F)(F)F)c2)cccc1-n1ccn2nc(-c3cccnc3)cc12 [Example 80, 3-Cyano-N-{2-methyl-3-[6-(pyridin-3-yl)-1H-imidazo[1,2-b]pyrazol-1-yl]phenyl}-5-(pentafluoro-λ^6-sulphanyl)benzamide]
pIC50: 6.14

Cc1ccc(NC(=O)c2cc(C(C)(C)O)cc(S(F)(F)(F)(F)F)c2)cc1-n1ccn2nc(-c3cncs3)cc12 [Example 178, 3-(2-Hydroxypropan-2-yl)-N-{4-methyl-3-[6-(1,3-thiazol-5-yl)-1H-imidazo[1,2-b]pyrazol-1-yl]-phenyl}-5-(pentafluoro-λ^6-sulphanyl)benzamide]
pIC50: 9.10
